We go through 14 molecules from patent publication US7217802B2, “Method and kit for detecting, or determining, 3,4-methylenedioxymethamphetamine” (Randox Laboratories Limited, priority 2001, dated 2007).

Converted amounts (≈) assume the structure as drawn. Read-outs that look alike come from different tables or passages of the source.

One data set deals with Cedia DAU. The note with it: cited from earlier work.
Another data set relates to Emit II Plus Monoclonal. The settings on record: cited from earlier work.
Data set [1] deals with antiserum raised to immunogen 7 (IgG fraction). The data set can be described thus: MDMA competitive ELISA (microtiter plate). In kind it is binding, sheep. The note with it: for IC50 / % CR (cross-reactivity = IC50MDMA/IC50CR x 100): Hapten 7-HRP; for % CR (cross-reactivity = IC50MDMA/IC50CR x 100): relative to MDMA 100; for level of cross-reactivity of the MDMA assays (in words): summary of Table 2. As to the method: An aqueous solution of the immunogen prepared in Example 8 was formulated with Freund's Complete Adjuvant (FCA) to form an emulsion consisting of 2 mg/ml immunogen in 50% (v/v) FCA. Two sheep were immunised with this emulsion, 0.25 ml being subcutaneously injected at each of 4 sites in the flank of each animal. Subsequent immunisations (boosts) contained 1 mg/ml immunogen emulsified in 50% (v/v) Freund's Incomplete Adjuvant (FIA) and were administered in the same manner at monthly intervals for 1 year. Blood sampling took place 7 to 14 days after each boost. Each sample was processed to produce antiserum that was further purified by caprylic acid and ammonium sulfate precipitation to yield an immunoglobulin G (IgG) fraction. The IgG fraction was evaluated by competitive microtiter plate assay, as described below.
The wells of an enhanced binding 96 well polystyrene microtiter plate were coated with the IgG fraction of the antiserum raised to Immunogen 7 (Example 8), diluted in 10 mM Tris, pH8.5 (125 μl/well). The appropriate antibody coating dilution was determined using standard ELISA chequerboard techniques. The plate was incubated for 2 hours at 37° C., washed 4 times with Tris buffered saline containing Tween 20 (TBST) and tapped dry. Standard solutions of MDMA were prepared in TBST at 0, 1, 10, 50, 100, 250, 500 and 1000 ng/ml and 25 μl of each was added to the appropriate wells (FIG. 2). Conjugates (detection reagents)-hapten 7-HRP (Example 9) and hapten 10-HRP (Example 12)—were diluted in Tris buffer, pH7.2, containing EDTA, D-mannitol, sucrose, thimerosal and BSA, appropriate dilutions being determined by standard ELISA chequerboard techniques, and 100 μl of each was added to the appropriate wells (FIG. 2). The plate was incubated at 37° C. for 2 hours. Excess unbound conjugate was removed by washing 6 times over a 10 minute period with TBST.
125 μl of tetramethylbenzidine (TMB) substrate solution was added to each well of the plate which was then incubated for 15 to 20 minutes in the dark at room temperature. The reaction was terminated by addition of 125 μl 0.2 M H2SO4 to each well. The absorbance was then measured at 450 nm using a microtiter plate reader.
In order to determine the specificity of the MDMA competitive ELISAs, standard solutions of potential cross-reactants MDEA, MDA, d-amphetamine, (+)-methamphetamine, (+)-ephedrine, (−)-ephedrine, (+)-pseudoephedrine, (−)-pseudoephedrine and 1-amphetamine were prepared in TBST at 0, 500, 1000, 5000, 10000, 25000, 50000 and 100000 ng/ml. Employing each series of standards in the MDMA competitive ELISAs, calibration curves were generated and these were used to determine the cross-reactivity of the immunoassays with these drugs. The results of this study are presented in Table 2, cross-reactivity being calculated according to the following formula: % CR=IC50MDMA/IC50CR×100
Where % CR is the percentage cross-reactivity, IC50MDMA is the concentration of MDMA that causes 50% displacement of signal and IC50CR is the concentration of potential cross-reactant, for which % CR is being evaluated, that causes 50% displacement of signal.
For orientation: ELISA stands for enzyme-linked immunosorbent assay.

Data set [2] has as its system Cozart Methamphetamine and MDMA. The settings on record: cited from earlier work; for cross-reactivity, Cozart Methamphetamine and MDMA: recalculated relative to 100% for MDMA.
In data set [3] the test system is Cozart methamphetamine EIA. The settings on record: cited from earlier work; for cross-reactivity, Cozart Methamphetamine: recalculated relative to 100% for MDMA; for cross-reactivity, Cozart methamphetamine EIA: compared to 100% for methamphetamine.
The test system of another data set is Cozart Amphetamine. The note with it: recalculated relative to 100% for MDMA; cited from earlier work.
Another data set relates to Cozart MDMA EIA. The settings on record: cited from earlier work; for cross-reactivity, Cozart MDMA: recalculated relative to 100% for MDMA; for cross-reactivity, Cozart MDMA EIA: compared to 100% for MDMA.
The conditions of data set [4]: in vivo; cited from earlier work.
[5] abbreviates: recalculated relative to 100% for MDMA.

For `CC(N)Cc1ccccc1` (racemic) [D,L-Amphetamine], the “cross-reactivity, CEDIA” value in the data set on Cedia DAU (setting [5]) is recorded as 84.1%. In addition, the “cross-reactivity, Emit” value in the data set with Emit II Plus Monoclonal (setting [5]) is 545.6%.
On to `CN[C@@H](C)Cc1ccccc1` (racemic) [D,L-Methamphetamine], for which the “cross-reactivity, CEDIA” value in the data set with Cedia DAU (setting [5]) is 94.25%. Besides, the “cross-reactivity, Emit” value in the data set on Emit II Plus Monoclonal (setting [5]) was 699.7%.
With `CN[C@H](C)[C@@H](O)c1ccccc1` [(+)-Ephedrine], in data set [1] (Trial 1), the IC50 is above 100000 ng/mL and the “% CR (cross-reactivity = IC50MDMA/IC50CR x 100)” value (shortened to “% CR”) was below 0.017%.
For `CN[C@@H](C)[C@H](O)c1ccccc1` [(−)-Ephedrine], in that order: above 100000 ng/mL and below 0.017%.
Turning to `C[C@H](N)Cc1ccccc1` [D-Amphetamine], the “cross-reactivity, Cozart Methamphetamine and MDMA” value in data set [2] is listed as 1.52%. For the same molecule, the “cross-reactivity, Cozart Methamphetamine” value in data set [3] is reported as 1%. The “cross-reactivity, CEDIA” value in the data set with Cedia DAU (setting [5]) was 146.5%. Further, the “cross-reactivity, Cozart Amphetamine” value in the data set with Cozart Amphetamine is 1,428%. Moreover, in data set [1] (Trial 1), the IC50 is 52199 ng/mL (≈ 386 µM) and the “% CR” value is on record as 0.03%. The “level of cross-reactivity of the MDMA assays (in words)” value (“level” below) in data set [1] was “very low levels of cross-reactivity”. For the same molecule, the “cross-reactivity, Cozart MDMA” value in the data set on Cozart MDMA EIA is 0.2–0.43%. In the data set on Emit II Plus Monoclonal (setting [5]), the “cross-reactivity, Emit” value is 917%.
In the case of `CN[C@@H](C)Cc1ccccc1` [D-Methamphetamine], the “cross-reactivity, Cozart Methamphetamine and MDMA” value in data set [2] is on record as 217%. Besides, the “cross-reactivity, Cozart Methamphetamine” value in data set [3] is 10%. In addition, the “cross-reactivity, CEDIA” value with Cedia DAU (setting [5]) was 145%. Besides, in data set [1] (Trial 1), the IC50 turned out to be 11138 ng/mL (≈ 74.6 µM) and the “% CR” value came out at 0.15%. Besides, the “level” value in data set [1] is recorded as “very low levels of cross-reactivity”. Further, in the data set with Cozart MDMA EIA, the “cross-reactivity, Cozart MDMA EIA” value is 52–80% and the “cross-reactivity, Cozart MDMA” value was 52–80%.
Consider `C[C@@H](N)Cc1ccccc1` [L-Amphetamine], for which the “cross-reactivity, CEDIA” value in the data set on Cedia DAU (setting [5]) is 4.35%. In data set [1] (Trial 2), the IC50 was above 30000 ng/mL and the “% CR” value was below 0.1%. Moreover, the “cross-reactivity, Emit” value in the data set with Emit II Plus Monoclonal (setting [5]) is reported as 120.13%.
Regarding `CN[C@H](C)Cc1ccccc1` [L-Methamphetamine], the “cross-reactivity, CEDIA” value in the data set with Cedia DAU (setting [5]) was 17.4%. Further, the “cross-reactivity, Cozart MDMA” value in the data set with Cozart MDMA EIA is 4–22%. The “cross-reactivity, Emit” value in the data set on Emit II Plus Monoclonal (setting [5]) is 378.7%.
On to `CCC(Cc1ccc2c(c1)OCO2)NC` (centres unmarked) [MBDB, N-methyl-1-(3,4-methylenedioxyphenyl)-2-butamine], for which the “cross-reactivity, Cozart Methamphetamine and MDMA” value in data set [2] was 319–334.2%. In addition, in data set [3], the “cross-reactivity, Cozart methamphetamine EIA” value is given as 150–200% and the “cross-reactivity, Cozart Methamphetamine” value is 15–20%. Moreover, in the data set on Cozart MDMA EIA, the “cross-reactivity, Cozart MDMA EIA” value was 10.4–20% and the “cross-reactivity, Cozart MDMA” value is recorded as 10.4–20^ %.
As for `CC(N)Cc1ccc2c(c1)OCO2` (centres unmarked) [MDA, 3,4-methylenedioxyamphetamine], the “cross-reactivity, Cozart Methamphetamine and MDMA” value in data set [2] was 0.87%. In data set [3], the “cross-reactivity, Cozart Methamphetamine” value is reported as 0.36%. The “cross-reactivity, CEDIA” value with Cedia DAU (setting [5]) is given as 2.76%. Also, the “cross-reactivity, Cozart Amphetamine” value in the data set with Cozart Amphetamine is reported as 208488–304164%. Further, in data set [1] (Trial 1), the IC50 is 300 ng/mL (≈ 1.67 µM) and the “% CR” value is 5.7%. The “level” value in data set [1] is “lower levels of cross-reactivity”. In the data set with Cozart MDMA EIA, the “cross-reactivity, Cozart MDMA” value is 0.3–0.74%. Besides, in the data set with Emit II Plus Monoclonal (setting [5]), the “cross-reactivity, Emit” value was 430.1%.
Turning to `CCNC(C)Cc1ccc2c(c1)OCO2` (centres unmarked) [MDEA, 3,4-methylenedioxyethylamphetamine], the “cross-reactivity, Cozart Methamphetamine and MDMA” value in data set [2] is recorded as 10.85%. In addition, in data set [3], the “cross-reactivity, Cozart methamphetamine EIA” value is recorded as 50–100% and the “cross-reactivity, Cozart Methamphetamine” value was 5–10%. The “cross-reactivity, Cozart Amphetamine” value in the data set with Cozart Amphetamine is 228.5%. In addition, in data set [1] (Trial 2), the IC50 was determined as 15 ng/mL (≈ 0.0724 µM) and the “% CR” value turned out to be 200%. Further, the “level” value in data set [1] is given as “high levels of cross-reactivity”. Besides, the “cross-reactivity, Cozart MDMA” value in the data set with Cozart MDMA EIA was 7.0–13.0%.
Regarding `CNC(C)Cc1ccc2c(c1)OCO2` (centres unmarked) [MDMA, 3,4-methylenedioxymethamphetamine], the “excreted unchanged in urine” value in data set [4] was 65%. In addition, the “cross-reactivity, single Cozart methamphetamine kit” value in data set [2] (compared to 100% for methamphetamine) is recorded as 43–49%. Besides, the “cross-reactivity, Cozart Methamphetamine and MDMA” value in data set [2] was 100%. The “cross-reactivity, Cozart methamphetamine EIA” value in data set [3] is on record as 758–1250%. In data set [3], the “cross-reactivity, Cozart Methamphetamine” value was 100%. For the same molecule, the “cross-reactivity, CEDIA” value is 69% with Cedia DAU (compared to 100% for D-methamphetamine) and 100% in the data set on Cedia DAU (setting [5]). Also, in the data set with Cozart Amphetamine, the “cross-reactivity, Cozart Amphetamine” value is 100%. In addition, the “IC50 (standard concentration which produces 50% B/B0)” value in data set [1] (Conjugate 7 (hapten 7-HRP)) was 17 ng/mL (≈ 0.088 µM); in data set [1] (Conjugate 10 (hapten 10-HRP)), 23.6 ng/mL (≈ 0.122 µM). The “% B/B0” value came to 83.4% in data set [1] (Conjugate 7 (hapten 7-HRP), standard concentration 1 ng/ml); 58% in data set [1] (Conjugate 7 (hapten 7-HRP), standard concentration 10 ng/ml); 34.7% in data set [1] (Conjugate 7 (hapten 7-HRP), standard concentration 50 ng/ml); 26% in data set [1] (Conjugate 7 (hapten 7-HRP), standard concentration 100 ng/ml); 15.9% in data set [1] (Conjugate 7 (hapten 7-HRP), standard concentration 250 ng/ml); 10.9% in data set [1] (Conjugate 7 (hapten 7-HRP), standard concentration 500 ng/ml). Further, the “% B/B0” value in data set [1] (Conjugate 7 (hapten 7-HRP), standard concentration 1000 ng/ml) is given as 7.5%; in data set [1] (Conjugate 10 (hapten 10-HRP), standard concentration 1 ng/ml) it was 86.1%; in data set [1] (Conjugate 10 (hapten 10-HRP), standard concentration 10 ng/ml) it was 59.3%; in data set [1] (Conjugate 10 (hapten 10-HRP), standard concentration 50 ng/ml) it was 34.4%; in data set [1] (Conjugate 10 (hapten 10-HRP), standard concentration 100 ng/ml), 28.3%; in data set [1] (Conjugate 10 (hapten 10-HRP), standard concentration 250 ng/ml), 19.6%. Moreover, the “% B/B0” value in data set [1] (Conjugate 10 (hapten 10-HRP), standard concentration 500 ng/ml) was 14.4%; in data set [1] (Conjugate 10 (hapten 10-HRP), standard concentration 1000 ng/ml), 8.97%. Further, the IC50 in data set [1] (Trial 1) is 17 ng/mL (≈ 0.088 µM); in data set [1] (Trial 2), 30 ng/mL (≈ 0.155 µM). Besides, the “% CR” value in data set [1] (Trial 1) and in data set [1] (Trial 2) was 100% each time. The “cross-reactivity, Cozart MDMA” value with Cozart MDMA EIA is on record as 100%. For the same molecule, the entries for the “cross-reactivity, Emit” value with Emit II Plus Monoclonal (compared to 100% for D,L-methamphetamine) and in the data set with Emit II Plus Monoclonal (setting [5]) were 14.3% and 100%, respectively.
Consider (+)-Pseudoephedrine, for which, in data set [1] (Trial 1), the IC50 is above 100000 ng/mL and the “% CR” value is listed as below 0.017%.
For (−)-Pseudoephedrine, in that order: above 100000 ng/mL and below 0.017%.

In general, IC50 refers to the concentration that gives 50% inhibition. A low value points to greater potency.
